ChEMBL document CHEMBL1201861, “Genomics of Drug Sensitity in Cancer screening data, Wellcome Trust Sanger Institute”
“And” between values parts separate entries of the source, which are not always exact repeats. Identical values can stand only once.

How the values were obtained:
[1] = tested on: Raji; assay: cells; type: functional, cell-based; conditions: Homo sapiens;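 also: cell viability assay measuring inhibition of Raji cell growth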
Description: SANGER: Inhibition of human Raji cell growth in a cell viability assay.

[2] = tested on: KMS-12-PE; assay: cells; type: functional, cell-based; conditions: Homo sapiens;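 also: growth inhibition of human KMS-12-PE cells, measured with a cell viability assay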
Description: SANGER: Inhibition of human KMS-12-PE cell growth in a cell viability assay.

[3] = tested on: REH; assay: cells; type: functional, cell-based; conditions: Homo sapiens;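 also: growth inhibition of REH cells determined with a cell viability read-out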
Description: SANGER: Inhibition of human REH cell growth in a cell viability assay.

[4] = tested on: Kasumi 1; assay: cells; type: functional, cell-based; conditions: Homo sapiens;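 also: growth inhibition of human Kasumi-1 cells, read out by a cell viability assay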
Description: SANGER: Inhibition of human KASUMI-1 cell growth in a cell viability assay.

[5] = tested on: BOKU; assay: cells; type: functional, cell-based; conditions: Homo sapiens;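 also: growth inhibition of the human BOKU cell line, read out by a cell viability assay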
Description: SANGER: Inhibition of human BOKU cell growth in a cell viability assay.

[6] = tested on: G-361; assay: cells; type: functional, cell-based, Homo sapiens; conditions: g-361
[7] = tested on: NB12; assay: cells; type: functional, cell-based, Homo sapiens; conditions: nb12;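 also: growth inhibition of human NB12 cells, read out by a cell viability assay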
Description: SANGER: Inhibition of human NB12 cell growth in a cell viability assay.

[8] = tested on: NCI-H1666; assay: cells; type: functional, cell-based; conditions: Homo sapiens;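 also: growth inhibition of the cell line, read out with a cell viability assay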
Description: SANGER: Inhibition of human NCI-H1666 cell growth in a cell viability assay.

[9] = tested on: KU-19-19; assay: cells; type: functional, cell-based, Homo sapiens; conditions: ku-19-19
Description: SANGER: Inhibition of human KU-19-19 cell growth in a cell viability assay.

[10] = tested on: NCI-H1703; assay: cells; type: functional, cell-based, Homo sapiens;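 also: growth inhibition of NCI-H1703 cells, read out via a cell viability assay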
Description: SANGER: Inhibition of human NCI-H1703 cell growth in a cell viability assay.

[11] = tested on: KARPAS-422; assay: cells; type: functional, cell-based; conditions: Homo sapiens
Description: SANGER: Inhibition of human KARPAS-422 cell growth in a cell viability assay.

[12] = tested on: A4-Fuk; assay: cells; type: functional, cell-based; conditions: Homo sapiens;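 also: growth inhibition of A4-Fuk cells, read out by a cell viability assay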
Description: SANGER: Inhibition of human A4-Fuk cell growth in a cell viability assay.

[13] = tested on: KALS-1; assay: cells; type: functional, cell-based, Homo sapiens;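 also: growth inhibition of KALS-1 cells, determined with a cell viability assay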
[14] = tested on: OAW-42; assay: cells; type: functional, cell-based, Homo sapiens; conditions: oaw-42;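 also: growth inhibition of OAW-42 cells, read out with a cell viability assay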
Description: SANGER: Inhibition of human OAW-42 cell growth in a cell viability assay.

[15] = tested on: SAS; assay: cells; type: functional, cell-based, Homo sapiens; conditions: sas;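 also: growth inhibition of SAS cells, read out with a cell viability assay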
Description: SANGER: Inhibition of human SAS cell growth in a cell viability assay.

[16] = tested on: YH-13; assay: cells; type: functional, cell-based; conditions: Homo sapiens;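 also: cell viability readout of growth suppression in the human YH-13 cell line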
Description: SANGER: Inhibition of human YH-13 cell growth in a cell viability assay.

[17] = tested on: NCI-H2081; assay: cells; type: functional, cell-based; conditions: Homo sapiens;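 also: growth inhibition of human NCI-H2081 cells, read out with a cell viability assay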
Description: SANGER: Inhibition of human NCI-H2081 cell growth in a cell viability assay.

[18] = tested on: NCI-H1436; assay: cells; type: functional, cell-based; conditions: Homo sapiens;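 also: growth suppression of human NCI-H1436 cells, determined with a cell viability readout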
Description: SANGER: Inhibition of human NCI-H1436 cell growth in a cell viability assay.

[19] = tested on: OAW-28; assay: cells; type: functional, cell-based, Homo sapiens;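 also: growth inhibition of OAW-28 cells, read out with a cell viability assay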
Description: SANGER: Inhibition of human OAW-28 cell growth in a cell viability assay.

[20] = tested on: CAKI-1; assay: cells; type: functional, cell-based, Homo sapiens;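 also: growth inhibition of CAKI-1 cells, measured by a cell viability assay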
Description: SANGER: Inhibition of human CAKI-1 cell growth in a cell viability assay.

[21] = tested on: NCI-H1299; assay: cells; type: functional, cell-based, Homo sapiens;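 also: growth inhibition of human NCI-H1299 cells, read out by a cell viability assay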
Description: SANGER: Inhibition of human NCI-H1299 cell growth in a cell viability assay.

[22] = tested on: NCI-H2009; assay: cells; type: functional, cell-based, Homo sapiens; conditions: nci-h2009;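 also: cell viability assay measuring inhibition of NCI-H2009 cell growth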
Description: SANGER: Inhibition of human NCI-H2009 cell growth in a cell viability assay.

[23] = tested on: D283 Med; assay: cells; type: functional, cell-based, Homo sapiens
Description: SANGER: Inhibition of human D-283MED cell growth in a cell viability assay.

[24] = tested on: SCC-3; assay: cells; type: functional, cell-based; conditions: Homo sapiens;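 also: cell viability assay measuring inhibition of SCC-3 cell growth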
Description: SANGER: Inhibition of human SCC-3 cell growth in a cell viability assay.

[25] = tested on: Lu-65; assay: cells; type: functional, cell-based; conditions: Homo sapiens;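 also: growth inhibition of Lu-65 cancer cells, read out by a cell viability assay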
Description: SANGER: Inhibition of human LU-65 cell growth in a cell viability assay.

[26] = tested on: Ca9-22; assay: cells; type: functional, cell-based, Homo sapiens; conditions: ca9-22;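 also: growth inhibition of Ca9-22 cells, read out with a cell viability assay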
Description: SANGER: Inhibition of human Ca9-22 cell growth in a cell viability assay.

[27] = tested on: NB17; assay: cells; type: functional, cell-based; conditions: Homo sapiens;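 also: growth inhibition of NB17 cells, read out with a cell viability assay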
Description: SANGER: Inhibition of human NB17 cell growth in a cell viability assay.

[28] = tested on: H-EMC-SS; assay: cells; type: functional, cell-based; conditions: Homo sapiens
Description: SANGER: Inhibition of human H-EMC-SS cell growth in a cell viability assay.

[29] = tested on: IMR-5; assay: cells; type: functional, cell-based; conditions: Homo sapiens;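 also: growth inhibition of human IMR-5 cells, read out with a cell viability assay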
Description: SANGER: Inhibition of human IMR-5 cell growth in a cell viability assay.

[30] = tested on: SUP-T1; assay: cells; type: functional, cell-based; conditions: Homo sapiens;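 also: growth inhibition of human SUP-T1 cells, read out as cell viability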
Description: SANGER: Inhibition of human SUP-T1 cell growth in a cell viability assay.

[31] = tested on: EB-3; assay: cells; type: functional, cell-based; conditions: Homo sapiens;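 also: human EB-3 cells, growth inhibition read out via a cell viability assay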
Description: SANGER: Inhibition of human EB-3 cell growth in a cell viability assay.

[32] = tested on: SNU-C1; assay: cells; type: functional, cell-based; conditions: Homo sapiens;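 also: growth inhibition of SNU-C1 human cells, read out by a cell viability assay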
Description: SANGER: Inhibition of human SNU-C1 cell growth in a cell viability assay.

[33] = tested on: NCI-H345; assay: cells; type: functional, cell-based; conditions: Homo sapiens;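 also: growth inhibition of NCI-H345 cells measured with a cell viability assay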
Description: SANGER: Inhibition of human NCI-H345 cell growth in a cell viability assay.

[34] = tested on: SW1990; assay: cells; type: functional, cell-based, Homo sapiens; conditions: sw1990
Description: SANGER: Inhibition of human SW1990 cell growth in a cell viability assay.

[35] = tested on: G-402; assay: cells; type: functional, cell-based, Homo sapiens; conditions: g-402
Description: SANGER: Inhibition of human G-402 cell growth in a cell viability assay.

[36] = tested on: DoTc2-4510; assay: cells; type: functional, cell-based, Homo sapiens; conditions: dotc2-4510
[37] = tested on: ST486; assay: SANGER: Inhibition of human ST486 cell growth in a cell viability assay.; type: functional, cell-based
[38] = tested on: NCI-H1963; assay: cells; type: functional, cell-based; conditions: Homo sapiens
Description: SANGER: Inhibition of human NCI-H1963 cell growth in a cell viability assay.

[39] = tested on: BC1 cell line; assay: SANGER: Inhibition of human BC-1 cell growth in a cell viability assay.; type: functional, cell-based
[40] = tested on: ARH-77; assay: cells; type: functional, cell-based; conditions: Homo sapiens;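 also: growth inhibition of ARH-77 cells, read out by a cell viability assay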
Description: SANGER: Inhibition of human ARH-77 cell growth in a cell viability assay.

[41] = tested on: MRK-nu-1; assay: cells; type: functional, cell-based; conditions: Homo sapiens;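 also: cell viability assay measuring growth suppression of human MRK-nu-1 cells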
Description: SANGER: Inhibition of human MRK-nu-1 cell growth in a cell viability assay.

[42] = tested on: PANC-08-13; assay: cells; type: functional, cell-based, Homo sapiens; conditions: panc-08-13
Description: SANGER: Inhibition of human PANC-08-13 cell growth in a cell viability assay.

[43] = tested on: KNS-62; assay: cells; type: functional, cell-based; conditions: Homo sapiens;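 also: inhibition of cell growth, read out with a cell viability assay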
Description: SANGER: Inhibition of human KNS-62 cell growth in a cell viability assay.

[44] = tested on: NCI-H889; assay: cells; type: functional, cell-based; conditions: Homo sapiens;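 also: cell growth inhibition of the cell line, read out with a viability assay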
Description: SANGER: Inhibition of human NCI-H889 cell growth in a cell viability assay.

[45] = tested on: SR; assay: cells; type: functional, cell-based; conditions: Homo sapiens
Description: SANGER: Inhibition of human SR cell growth in a cell viability assay.

[46] = tested on: ECC4; assay: cells; type: functional, cell-based; conditions: Homo sapiens;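 also: growth inhibition of ECC4 cells, read out with a cell viability assay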
Description: SANGER: Inhibition of human ECC4 cell growth in a cell viability assay.

[47] = tested on: Daudi; assay: cells; type: functional, cell-based; conditions: Homo sapiens;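 also: growth inhibition of Daudi cells, read out by a viability assay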
Description: SANGER: Inhibition of human Daudi cell growth in a cell viability assay.

[48] = tested on: NCI-H2141; assay: cells; type: functional, cell-based; conditions: Homo sapiens;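 also: growth inhibition of human NCI-H2141 cells, read out with a cell viability assay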
Description: SANGER: Inhibition of human NCI-H2141 cell growth in a cell viability assay.

[49] = tested on: NCI-H524; assay: cells; type: functional, cell-based; conditions: Homo sapiens;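 also: growth inhibition of human NCI-H524 cells, read out through a cell viability assay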
Description: SANGER: Inhibition of human NCI-H524 cell growth in a cell viability assay.

[50] = tested on: K052; assay: cells; type: functional, cell-based; conditions: Homo sapiens;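 also: Read-out from a cell viability assay, IC50 reflecting suppression of K052 cell growth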
Description: SANGER: Inhibition of human K052 cell growth in a cell viability assay.

[51] = tested on: CA46; assay: cells; type: functional, cell-based; conditions: Homo sapiens;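 also: growth inhibition of human CA46 cells, read out by a cell viability assay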
Description: SANGER: Inhibition of human CA46 cell growth in a cell viability assay.

[52] = tested on: NCI-H1694; assay: cells; type: functional, cell-based; conditions: Homo sapiens;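 also: cell viability assay measuring inhibition of growth in human NCI-H1694 cells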
Description: SANGER: Inhibition of human NCI-H1694 cell growth in a cell viability assay.

[53] = tested on: L-540; assay: cells; type: functional, cell-based; conditions: Homo sapiens;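 also: growth inhibition of the human L-540 cell line, read out with a viability assay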
Description: SANGER: Inhibition of human L-540 cell growth in a cell viability assay.

[54] = tested on: OC-314; assay: cells; type: functional, cell-based; conditions: Homo sapiens
Description: SANGER: Inhibition of human OC-314 cell growth in a cell viability assay.

[55] = tested on: LB647-SCLC; assay: cells; type: functional, cell-based; conditions: Homo sapiens;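 also: cell growth inhibition, read out by a viability assay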
Description: SANGER: Inhibition of human LB647-SCLC cell growth in a cell viability assay.

[56] = tested on: TE-15; assay: cells; type: functional, cell-based; conditions: Homo sapiens;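 also: cell viability readout of growth inhibition in TE-15 cells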
Description: SANGER: Inhibition of human TE-15 cell growth in a cell viability assay.

[57] = tested on: GI-1; assay: cells; type: functional, cell-based, Homo sapiens;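 also: growth inhibition of human GI-1 cells, measured with a cell viability readout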
Description: SANGER: Inhibition of human GI-1 cell growth in a cell viability assay.

[58] = tested on: KURAMOCHI; assay: cells; type: functional, cell-based; conditions: Homo sapiens;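 also: growth inhibition of KURAMOCHI cells, read out with a cell viability assay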
Description: SANGER: Inhibition of human KURAMOCHI cell growth in a cell viability assay.

[59] = tested on: MOLT-13; assay: cells; type: functional, cell-based; conditions: Homo sapiens;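 also: IC50 for suppression of MOLT-13 cell growth, read out with a cell viability assay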
Description: SANGER: Inhibition of human MOLT-13 cell growth in a cell viability assay.

With `Cc1cc([C@@H](C)Nc2ccccc2C(=O)O)c2nc(N3CCOCC3)cc(=O)n2c1` [AZD-6482] the IC50 [1] was > 5.12 µM, the IC50 [2] was > 5.12 µM and the IC50 [3] was > 5.12 µM. The IC50 [4] was 2.06 µM, the IC50 [5] was > 5.12 µM and the IC50 [6] was 3.9 µM and > 5.12 µM. The IC50 [7] was 1.55 µM and > 5.12 µM, the IC50 [8] was > 5.12 µM and the IC50 [9] was > 5.12 µM. For the same compound, the IC50 ([10]; Homo sapiens, NCI-H1703) was > 5.12 µM, the IC50 ([10]; nci-h1703) was > 5.12 µM and the IC50 [11] was 1.54 µM. The IC50 [12] was 3.08 µM, the IC50 ([13]; Homo sapiens, KALS-1) was 4.35 µM and the IC50 ([13]; kals-1) was > 5.12 µM. For the same compound, the IC50 [14] was > 5.12 µM, the IC50 [15] was > 5.12 µM and the IC50 [16] was 1.95 µM. The IC50 [17] was > 5.12 µM, the IC50 [18] was > 5.12 µM and the IC50 ([19]; Homo sapiens, OAW-28) was > 5.12 µM. The IC50 ([19]; oaw-28) was > 5.12 µM, the IC50 ([20]; Homo sapiens, CAKI-1) was 3.17 µM and the IC50 ([20]; caki-1) was 4.71 µM. For the same compound, the IC50 ([21]; nci-h1299) was 3.67 µM and > 5.12 µM, the IC50 [22] was 5.01 µM and > 5.12 µM and the IC50 ([23]; d283 med) was > 5.12 µM. The IC50 [24] was > 5.12 µM, the IC50 [25] was > 5.12 µM and the IC50 [26] was > 5.12 µM. The IC50 [27] was > 5.12 µM, the IC50 [28] was > 5.12 µM and the IC50 [29] was > 5.12 µM. For the same compound, the IC50 [30] was > 5.12 µM, the IC50 [31] was > 5.12 µM and the IC50 [32] was > 5.12 µM. The IC50 [33] was > 5.12 µM, the IC50 [34] was > 5.12 µM and the IC50 [35] was 3.24 µM and > 5.12 µM. The IC50 [36] was > 5.12 µM, the IC50 [37] was > 5.12 µM and the IC50 [38] was > 5.12 µM. The IC50 [39] was > 5.12 µM, the IC50 [40] was > 5.12 µM and the IC50 [41] was > 5.12 µM. For the same compound, the IC50 [42] was > 5.12 µM, the IC50 [43] was > 5.12 µM and the IC50 [44] was > 5.12 µM. For the same compound, the IC50 [45] was > 5.12 µM, the IC50 [46] was > 5.12 µM and the IC50 [47] was 1.07 µM. The IC50 [48] was > 5.12 µM, the IC50 [49] was > 5.12 µM and the IC50 [50] was > 5.12 µM. For the same compound, the IC50 [51] was > 5.12 µM, the IC50 [52] was > 5.12 µM and the IC50 [53] was > 5.12 µM. For the same compound, the IC50 [54] was > 5.12 µM, the IC50 [55] was > 5.12 µM and the IC50 [56] was 4.67 µM. For the same compound, the IC50 ([57]; gi-1) was 1.32 µM and > 5.12 µM.
`CN1CCN(CCOc2cc(OC3CCOCC3)c3c(Nc4c(Cl)ccc5c4OCO5)ncnc3c2)CC1` [SARACATINIB] was tested, and the IC50 [1] was > 2 µM, the IC50 [2] was > 2 µM and the IC50 [3] was > 2 µM. The IC50 [4] was > 2 µM, the IC50 [5] was > 2 µM and the IC50 [11] was > 2 µM. For the same compound, the IC50 [12] was > 2 µM, the IC50 ([13]; Homo sapiens, KALS-1) was 1.99 µM and the IC50 [17] was > 2 µM. The IC50 [18] was 0.79 µM, the IC50 ([21]; Homo sapiens, NCI-H1299) was > 2 µM and the IC50 ([23]; Homo sapiens, D283 Med) was > 2 µM. For the same compound, the IC50 [24] was > 2 µM, the IC50 [25] was > 2 µM and the IC50 [27] was > 2 µM. For the same compound, the IC50 [29] was > 2 µM, the IC50 [30] was > 2 µM and the IC50 [31] was > 2 µM. The IC50 [32] was > 2 µM, the IC50 [33] was > 2 µM and the IC50 [37] was 1.46 µM. For the same compound, the IC50 [38] was > 2 µM, the IC50 [39] was > 2 µM and the IC50 [40] was > 2 µM. The IC50 [41] was > 2 µM, the IC50 [58] was > 2 µM and the IC50 [44] was > 2 µM. The IC50 [45] was > 2 µM, the IC50 [46] was > 2 µM and the IC50 [47] was > 2 µM. For the same compound, the IC50 [48] was > 2 µM, the IC50 [49] was > 2 µM and the IC50 [50] was > 2 µM. The IC50 [51] was > 2 µM, the IC50 [52] was > 2 µM and the IC50 [59] was > 2 µM. For the same compound, the IC50 [53] was > 2 µM, the IC50 [55] was > 2 µM and the IC50 [56] was 0.274 µM. The IC50 ([57]; Homo sapiens, GI-1) was > 2 µM.
